Experimental data as given in the NIST ThermoML archive (doi:10.1016/j.tca.2009.08.017).
± gives the expanded uncertainty stated by the source.

Experiments:
[1] = Molar enthalpy of transition or fusion; settings: Crystal; DSC
[2] = Crystal; DTA

| Molar enthalpy of transition or fusion [1] [kcal/mol] | Normal melting temperature [2] [°C] | Structure (SMILES) |
| --- | --- | --- |
| 26.9 ± 1.53 | 210.20 ± 3.2 | NC(=O)C[C@H](N)C(=O)O [L-asparagine] |
| 6.93 ± 0.884 | 182.20 ± 3.4 | NC(=O)CC[C@H](N)C(=O)O [L-glutamine] |
